Laboratory results: paper PMC9821907, “Synthesis and Antiprotozoal Activity of Azabicyclo-Nonane Pyrimidine Hybrids” (Molecules, 2022)
Read-outs that look alike come from different tables or passages of the source.

Tests used:
L-6 cells [1] = conditions: cited from earlier work
[2] = test system: T. brucei rhodesiense STIB900; parameters: method as in PMID 25746816; conditions: ref [12]; cited from earlier work
P. falciparum K1 [3] = test system: P. falciparum K1; parameters: method as in PMID 25746816; conditions: K1 strain, resistant to chloroquine, sulfadoxine and pyrimethamine; ref [12]; cited from earlier work
P. falciparum K1 [4] = assay: In vitro microplate 3H-hypoxanthine incorporation assay against P. falciparum K1; format: cell-based, Plasmodium falciparum; conditions: Plasmodium falciparum, K1, K1 strain, resistant to chloroquine, sulfadoxine and pyrimethamine; average of four determinations; read-out: P. falciparum K1 IC50
Protocol: (§1) Compounds were tested for their activities against Plasmodium falciparum NF54 (sensitive to chloroquine) and Trypanosoma brucei rhodesiense STIB900, via serial dilution assays. Furthermore, selected compounds were tested against the K1 strain of Plasmodium falciparum (resistant against chloroquine, sulfadoxine and pyrimethamine). Their cytotoxicity was determined with rat skeletal myoblasts (L-6 cells).
(§2) In vitro activity against erythrocytic stages of P. falciparum was determined using a ^3H-hypoxanthine incorporation assay using the drug sensitive NF54 strain [27] or the chloroquine- and pyrimethamine-resistant K1 strain [28]. Compounds were dissolved in DMSO at 10 mg/mL and further diluted in medium before being added to parasite cultures incubated in RPMI 1640 medium without hypoxanthine, supplemented with HEPES (5.94 g/L), NaHCO3 (2.1 g/L), neomycin (100 U/mL), Albumax® (5 g/L) and washed human red cells A+ at 2.5% haematocrit (0.3% parasitaemia). Serial drug dilutions of eleven 3-fold dilution steps covering a range from 100 to 0.002 μg/mL were prepared. The 96-well plates were incubated in a humidified atmosphere at 37 °C; 4% CO2, 3% O2, 93% N2. After 48 h, 0.05 mL of ^3H-hypoxanthine (= 0.5 μCi) was added to each well of the plate. The plates were incubated for a further 24 h under the same conditions. The plates were then harvested with a Betaplate™ cell harvester (Wallac, Zurich, Switzerland), and the red blood cells transferred onto a glass fibre filter then washed with distilled water. The dried filters were inserted into a plastic foil with 10 mL of scintillation fluid, and counted in a Betaplate™ liquid scintillation counter (Wallac, Zurich, Switzerland). IC50 values were calculated from sigmoidal inhibition curves by linear regression using Microsoft Excel. Chloroquine (Sigma C6628) was used as control.

P. falciparum NF54 [5] = conditions: NF54 strain, sensitive to chloroquine and pyrimethamine, cited from earlier work
L-6 cells [6] = assay: In vitro cytotoxicity with L-6 cells; conditions: read-out: Cytotoxicity L-6 Cells IC50; rat skeletal myoblasts; average of four determinations
Protocol: as §1
(§3) Assays were performed in 96-well microtiter plates, each well containing 0.1 mL of RPMI 1640 medium supplemented with 1% L-glutamine (200 mM) and 10% fetal bovine serum, and 4000 L-6 cells (a primary cell line derived from rat skeletal myoblasts, ATCC CRL-1458™). Serial drug dilutions of eleven 3-fold dilution steps covering a range from 100 to 0.002 μg/mL were prepared. After 70 h of incubation the plates were inspected under an inverted microscope to assure growth of the controls and sterile conditions. Then, 0.01 mL resazurin solution (resazurin, 12.5 mg in 100 mL double-distilled water) was added to each well and the plates incubated for another 2 h. The plates were read with a Spectramax Gemini XS microplate fluorometer (Molecular Devices Cooperation, Sunnyvale, CA, USA) using an excitation wave length of 536 nm and an emission wave length of 588 nm. The IC50 values were calculated by linear regression from the sigmoidal dose inhibition curves using SoftmaxPro software (Molecular Devices Cooperation, Sunnyvale, CA, USA). Podophyllotoxin (Sigma P4405) was used as control.

P. falciparum NF54 [7] = assay: In vitro microplate 3H-hypoxanthine incorporation assay against P. falciparum NF54; format: cell-based; conditions: Plasmodium falciparum; NF54 strain, sensitive to chloroquine and pyrimethamine; average of four determinations; read-out: P. falciparum NF54 IC50
Protocol: as §1, §2

[8] = test system: T. brucei rhodesiense STIB900; assay: In vitro microplate resazurin assay against T. brucei rhodesiense; format: cell-based; conditions: Trypanosoma brucei; bloodstream forms; average of four determinations; read-out: T. brucei rhodesiense STIB900 IC50
Protocol: as §1
Minimum essential medium (50 µL) supplemented with 25 mM HEPES, 1g/L additional glucose, 1% MEM non-essential amino acids (100×), 0.2 mM 2-mercaptoethanol, 1mM Na-pyruvate and 15% heat-inactivated horse serum was added to each well of a 96-well microtiter plate. Serial drug dilutions of eleven 3-fold dilution steps covering a range from 100 to 0.002 μg/mL were prepared. Then 4 × 10^3 bloodstream forms of T. b. rhodesiense STIB 900 in 50 µL was added to each well and the plate incubated at 37 °C under a 5 % CO2 atmosphere for 70 h. Next, 10 µL resazurin solution (resazurin, 12.5 mg in 100 mL double-distilled water) was added to each well and incubation continued for a further 2–4 h. Then the plates were read with a Spectramax Gemini XS microplate fluorometer (Molecular Devices Cooperation, Sunnyvale, CA, USA) using an excitation wave length of 536 nm and an emission wave length of 588 nm. Data were analyzed with the graphic programme Softmax Pro (Molecular Devices Cooperation, Sunnyvale, CA, USA), which calculated IC50 values by linear regression and 4-parameter logistic regression from the sigmoidal dose inhibition curves. Melarsoprol (Arsobal Sanofi-Aventis, received from WHO) was used as control.

in vitro = conditions: rat
Protocol: as §1, §3

Compound | IC50 (L-6 cells [1]) | IC50 [2] | IC50 (P. falciparum K1 [3]) | IC50 (P. falciparum K1 [4]) | also measured
5-(piperidin-1-yl)-2-azabicyclo-nonane [Compound 1] | 89700 nM | 6570 nM | 640 nM | – | –
5-(pyrrolidin-1-yl)-2-azabicyclononane [Compound 2] | 120000 nM | 1160 nM | 560 nM | – | –
CCc1nc(N)nc(N)c1-c1ccc(Cl)cc1 [PYR, pyrimethamine, reference compound] | – | – | – | 10000 nM | IC50 (P. falciparum NF54 [5]; ref [24]): 17 nM
1-(piperidin-1-yl)-3-azabicyclononane [Compound 3] | 122000 nM | 2020 nM | 750 nM | – | –
1-(pyrrolidin-1-yl)-3-azabicyclononane [Compound 4] | – | 1000 nM | 95 nM | – | IC50 (L-6 cells [1]; read-out: Cytotoxicity L-6 Cells IC50, rat skeletal myoblasts, ref [12]): 72900 nM; IC50 (P. falciparum NF54 [5]; ref [13]): 72 nM
COc1cc([C@@H]2c3cc4c(cc3[C@H](O)[C@H]3COC(=O)[C@H]23)OCO4)cc(OC)c1OC [POD, podophyllotoxin, reference compound] | – | – | – | – | IC50 (L-6 cells [6]): 12 nM
Nc1cc(N2CC3C(c4ccccc4)CC(N4CCCCC4)(CC3c3ccccc3)C2)nc(N)n1 (racemic) [Compound 11] | – | – | – | 87 ± 2 nM | IC50 (P. falciparum NF54 [7]): 23 ± 1 nM; IC50 [8]: 201 ± 39 nM; IC50 at 72 h (in vitro): 4330 ± 235 nM
Cc1cc(N2CC3C(c4ccccc4)CC(N4CCCC4)(CC3c3ccccc3)C2)nc(Cl)n1 (racemic) [Compound 16, rac-(7R,8R)-3-(2-chloro-6-methylpyrimidin-4-yl)-6,9-diphenyl-1-(pyrrolidin-1-yl)-3-azabicyclo[3.2.2]nonane] | – | – | – | 292 ± 21 nM | IC50 (P. falciparum NF54 [7]): 281 ± 6 nM; IC50 [8]: 4310 ± 21 nM; IC50 at 72 h (in vitro): 12500 ± 1440 nM
